# Measured values taken from patent US8629164B2, “Inhibitors of NF-κB” (Profectus Biosciences, Inc., priority 2009, dated 2014).
# What was measured:
# [1] = tested on: human peripheral blood mononuclear cells (hPBMCs); assay: Cytotoxicity to hPBMCs (CellTiter-Glo); format: cell-based; details: hPBMCs, at 40 μM
# Description: Human peripheral blood mononuclear cells (hPBMCs) were treated with example 1 or DHMEQ and the percentage of viable cells was assessed 24 hours post drug treatment. The graph represents the mean±the standard deviation of three replicate experiments.
# The cytotoxicity profile of the compound of Example 1. The cytotoxicity of the compound of Example 1 was determined for human peripheral blood mononuclear cells (hPBMCs). As with the activity assay, the hPBMCs were treated with 0, 0.2, 1, 10, 20 and 40 μM of the compound of Example 1 for 2 hours, and then induced with 20 ng/ml TNF-α for 48 hours. The number of viable cells was determined using CellTiter-Glo luminescent cell viability assay (Promega (cat #G7573)). […] The selectivity index (the ratio of cytotoxicity CC50 to inhibitory IC50) is assigned to the compound of Example 1.
# RelA/p65 = assay: Immunostaining of RelA/p65 nuclear translocation in Hek293 cells; format: cell-based; details: TNFα 20 ng/ml, 30 minutes
# Description: (§1) Specifically, the compound of Example 1 causes the accumulation of activated RelA/p65 in the cytoplasm of cells. Hek293 cells were treated with DHMEQ or the compound of Example 1 (as indicated) with TNFα (20 ng/ml) for 30 minutes. After incubation, the cells were immunostained with anti-p65 antibody (C-20) antibody (Santa Cruz Biotechnology, Santa Cruz, Calif.) and nuclei were counterstained with Dapi. Images were captured using an AE31 inverted microscope with epifluorescence illuminator (Motic, Xiamen, China) and a ProgRes C3 camera (JENOPTIK, Jena, Germany). Individual images of p65 and corresponding nuclei were merged for final figure. Control treated cells (DMSO only) show nuclear accumulation of p65 upon TNFα stimulation.
# as §1, with “Immunostaining of RelA/p65. The” for “Specifically, the”, “incubation,” for “incubation, the”, “figure.” for “figure. Control treated cells (DMSO only) show nuclear accumulation of p65 upon TNFα stimulation.”
# RelB = target: T1, RelB (Homo sapiens, UniProt Q01201); assay: TransAM NF-κB Family DNA Binding ELISA, RelB; details: RelB binding to DNA IC50, FIG. 8, non-canonical pathway
# T1 sequence (Q01201 1-579): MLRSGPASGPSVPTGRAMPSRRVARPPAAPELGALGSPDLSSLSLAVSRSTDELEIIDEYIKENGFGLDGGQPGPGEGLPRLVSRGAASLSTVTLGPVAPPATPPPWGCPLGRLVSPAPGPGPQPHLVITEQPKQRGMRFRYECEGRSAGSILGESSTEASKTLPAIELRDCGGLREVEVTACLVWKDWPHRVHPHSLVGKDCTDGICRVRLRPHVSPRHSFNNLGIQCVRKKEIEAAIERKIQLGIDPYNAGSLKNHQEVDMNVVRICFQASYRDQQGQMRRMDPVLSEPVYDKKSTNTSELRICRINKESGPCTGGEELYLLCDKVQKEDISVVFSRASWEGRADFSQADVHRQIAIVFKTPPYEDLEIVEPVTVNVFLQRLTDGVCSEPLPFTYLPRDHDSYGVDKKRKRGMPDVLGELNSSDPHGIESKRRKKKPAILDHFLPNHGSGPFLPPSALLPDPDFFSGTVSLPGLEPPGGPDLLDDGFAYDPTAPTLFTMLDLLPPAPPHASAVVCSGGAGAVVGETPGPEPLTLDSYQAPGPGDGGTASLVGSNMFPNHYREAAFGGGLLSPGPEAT
# T1 sequence (Q00653 1-454 partner limits assumed): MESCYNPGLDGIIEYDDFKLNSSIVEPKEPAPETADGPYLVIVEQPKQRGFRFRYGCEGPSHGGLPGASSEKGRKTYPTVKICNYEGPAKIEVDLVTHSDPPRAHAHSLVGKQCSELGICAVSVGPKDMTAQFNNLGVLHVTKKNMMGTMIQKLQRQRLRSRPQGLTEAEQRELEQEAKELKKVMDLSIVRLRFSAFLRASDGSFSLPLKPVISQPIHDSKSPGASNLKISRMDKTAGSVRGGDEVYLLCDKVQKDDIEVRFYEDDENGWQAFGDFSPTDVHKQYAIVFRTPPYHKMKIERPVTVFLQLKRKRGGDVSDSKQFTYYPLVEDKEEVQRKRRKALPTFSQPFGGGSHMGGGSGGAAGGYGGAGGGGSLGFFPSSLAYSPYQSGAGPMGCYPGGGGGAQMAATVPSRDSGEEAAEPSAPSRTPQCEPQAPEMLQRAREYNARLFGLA
# Description: Treated samples were then transferred to 30 μL Complete Binding Buffer (with DTT) in microplate wells pre-coated with the NF-κB consensus oligonucleotide. […] The plate was incubated for 1 hour at room temperature with gentle shaking and then washed 3 times with 200 μL 1× Wash Buffer. NF-κB p65, p50, p52, RelB, or c-Rel subunits bound to the plate were detected with 100 μL of the primary antibody (diluted 1:1000 in 1× Antibody Buffer) specific for that subunit. The plate was incubated for 1 hour at room temperature and then washed 3 times with 200 μL 1× Wash Buffer. Next, 100 μL of a HRP conjugated goat anti-rabbit antibody (diluted 1:1,000 in 1× Antibody Buffer) was added to each well. The plate was incubated for 1 hour at room temperature and then washed 4 times with 200 μL 1× Wash Buffer. 100 μL of room temperature Developing Solution was added to each well. The reaction was allowed to develop for 2-10 minutes until a medium dark blue color developed (depending on the subunit activity in the lot of extract or lot of recombinant protein used) and then the reaction was stopped with 100 μL Stop Solution yielding a yellow color. Absorbance was recorded using a Becton-Dickinson DTX 880 Multimode Detector at 450 nm with a reference wavelength subtracted at 620 nm.
# [2] = tested on: collagen-induced arthritis; assay: Mouse model of collagen-induced rheumatoid arthritis (CIA)
# Description: Male DBA mice developed arthritis by injecting bovine CII collagen in tails at day 1 and day 21.
Molecule,inhibition of cell growth [1],concentration at which TNFα induced nuclear accumulation of p65 was significantly blocked (RelA/p65),IC50 (RelB) [µM],"anti-inflammation effects vs vehicle treated group ([2]; Example 2 15 mg/kg s.c. qd 21-35, etanercept 50 ug/mouse ip qd 21-35, P<0.05)",histological evaluation of joints ([2]; day 35),"myeloperoxidase activities ([2]; mouse, in vivo)"
"O=C(NC1=CC(=O)C2OC2C1O)c1ccccc1O (stereo not drawn) [DHMEQ, dehydroxymethylepoxyquinomicin, reference compound]",greater than 60%,higher concentration,> 20,–,–,–
etanercept [reference compound],–,–,–,statistal significant anti-inflammation effects,significant reduction of inflammation,concomitant reduction
